In patent publication US9321764B2, “Dihydro-pyrrolopyridinone inhibitors” (AbbVie Inc., priority 2013, dated 2016) one finds EC50 and Ki data, which are given here for 17 molecules.

Test [1] deals with breast cancer cell line MX-1. Nature of the test: MX-1 cell line proliferation assay. The test is classed as cell-based. The settings on record: Homo sapiens, MX1, 72 h, MX-1 cells, 3-day proliferation assay, Cell Titer Glo; read-out: Cellular proliferation EC50. On the procedure:
The impact of compounds of the Examples on cancer cell proliferation was determined using the breast cancer cell line MX-1 (ATCC) in a 3-day proliferation assay and the data are reported in Table 1. MX-1 cells were maintained in RPMI 1640 medium (Sigma) supplemented with 10% FBS at 37° C. and an atmosphere of 5% CO2. For compound testing, MX-1 cells were plated in 96-well black bottom plates at a density of 5000 cells/well in 90 μL of culture media and incubated at 37° overnight to allow cell adhesion and spreading. Compound dilution series were prepared in DMSO via a 3-fold serial dilution from 3 mM to 0.1 μM. The DMSO dilution series were then diluted 1:100 in phosphate buffered saline, and 10 μL of the resulted solution were added to the appropriate wells of the MX-1 cell plate. The final compound concentrations in the wells were 3, 1, 0.3, 0.1, 0.03, 0.01, 0.003, 0.001, 0.0003 and 0.0001 μM.
Luminescence readings from the Cell Titer Glo assay were normalized to the DMSO treated cells and analyzed using the GraphPad Prism software with sigmoidal curve fitting to obtain EC50s. The minimum significant ratio (MSR) was determined to evaluate assay reproducibility (Eastwood et al., (2006) J Biomol Screen, 11: 253-261).
(In general: Cellular ATP, detected with luciferase, serves as a proxy for viable cell number.)

Another test deals with T1, BRD4 (BDI_K57-E168) (Homo sapiens, UniProt O60885).
T1 construct: BD1: amino acids K57-E168; made in house
Nature of the test: TR-FRET bromodomain binding assay, first bromodomain of BRD4. The settings on record: His-tagged BD1, 100 nM Alexa647 probe; TR-FRET protocol A-E given per row. The gist of the method:
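Ki values come from IC50s (4-parameter logistic) corrected for probe Kd and concentration, normalised to no-compound and 1 μM unlabelled probe controls. Probe displacement by TR-FRET used 8 nM BD1 (K57-E168), 100 nM Alexa647 probe, 1 nM Eu-anti-His, 20 mM phosphate pH 6.0, 2% DMSO, 1 h, room temperature.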
(In general: Time-resolved FRET reads energy transfer from a long-lived donor to a nearby acceptor.)

A further test addresses T2, BRD4 (BDII_E352-M457) (Homo sapiens, UniProt O60885).
T2 construct: proliferation; Protocol; made in house
Nature of the test: TR-FRET bromodomain binding assay, second bromodomain of BRD4. The note with it: His-tagged BD2, 30 nM Alexa647 probe; TR-FRET protocol A-E given per row. Put shortly: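 His-tagged BRD4 BD2 ([…]) competed against an Alexa647-labelled BET-inhibitor probe in TR-FRET. Buffer was 20 mM sodium phosphate pH 6.0, 50 mM NaCl, 1 mM EDTA, 0.01% Triton X-100, 1 mM DTT, with method D DMSO series of 2.5 mM–800 nM (stock range). IC50 from 4-parameter fit, Ki from probe Kd and concentration.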

As to `Cn1cc(-c2cc(CS(=O)(=O)N3CCOCC3)ccc2Oc2ccc(F)cc2F)c2cc[nH]c(=O)c21` [Example 95, 3-{2-(2,4-difluorophenoxy)-5-[(morpholin-4-ylsulfonyl)methyl]phenyl}-1-methyl-1,6-dihydro-7H-pyrrolo[2,3-c]pyridin-7-one], the EC50 in test [1] worked out at 8 nM. Also, the Ki (as a rule, a dissociation constant, usually derived from enzyme kinetics or from competition with a known ligand) on BRD4 (BDI_K57-E168) came out at 4.2 nM; on BRD4 (BDII_E352-M457), 2.1 nM.
For `Cn1cc(-c2cc(CS(=O)(=O)Nc3nccs3)ccc2Oc2ccc(F)cc2F)c2cc[nH]c(=O)c21` [Example 104, 1-[4-(2,4-difluorophenoxy)-3-(1-methyl-7-oxo-6,7-dihydro-1H-pyrrolo[2,3-c]pyridin-3-yl)phenyl]-N-(1,3-thiazol-2-yl)methanesulfonamide] the same measures were greater than 3000 nM, 72 nM and 107 nM.
As to `COC1CCN(Cc2ccc(Oc3ccc(F)cc3F)c(-c3cn(C)c4c(=O)[nH]ccc34)c2)CC1` [Example 115, 3-{2-(2,4-difluorophenoxy)-5-[(4-methoxypiperidin-1-yl)methyl]phenyl}-1-methyl-1,6-dihydro-7H-pyrrolo[2,3-c]pyridin-7-one], the EC50 in test [1] turned out to be 1420 nM. The Ki at BRD4 (BDI_K57-E168) stood at 1350 nM; at BRD4 (BDII_E352-M457), 1330 nM.
For `Cn1cc(-c2cc(CN3CCNCC3)ccc2Oc2ccc(F)cc2F)c2cc[nH]c(=O)c21` [Example 105, 3-[2-(2,4-difluorophenoxy)-5-(piperazin-1-ylmethyl)phenyl]-1-methyl-1,6-dihydro-7H-pyrrolo[2,3-c]pyridin-7-one] the same measures were 806 nM, 528 nM and 329 nM.
For `CCS(=O)(=O)Nc1ccc(Oc2ccc(F)cc2F)c(-c2cn(C)c3c(=O)[nH]c(C(=O)NCC4CCCC4)cc23)c1` [Example 195, N-(cyclopentylmethyl)-3-{2-(2,4-difluorophenoxy)-5-[(ethylsulfonyl)amino]phenyl}-1-methyl-7-oxo-6,7-dihydro-1H-pyrrolo[2,3-c]pyridine-5-c arboxamide] the same measures were 162 nM, 10.4 nM and 12.7 nM.
Consider `CCS(=O)(=O)Nc1ccc(Oc2ccc(F)cc2F)c(-c2cn(C)c3c(=O)[nH]c(C(=O)NCc4cccnc4)cc23)c1` [Example 192, 3-{2-(2,4-difluorophenoxy)-5-[(ethylsulfonyl)amino]phenyl}-1-methyl-7-oxo-N-(pyridin-3-ylmethyl)-6,7-dihydro-1H-pyrrolo[2,3-c]pyridine-5-carboxamide], for which the EC50 in test [1] amounted to 10.7 nM. Also, the Ki on BRD4 (BDI_K57-E168) worked out at 0.9 nM; on BRD4 (BDII_E352-M457) it was 1.3 nM.
Taken in the same sequence, the figures for `Cn1cc(-c2cc(S(C)(=O)=O)ccc2OC2CCOC2)c2cc[nH]c(=O)c21` (stereo not drawn) [Example 22, 1-methyl-3-[5-(methylsulfonyl)-2-(tetrahydrofuran-3-yloxy)phenyl]-1,6-dihydro-7H-pyrrolo[2,3-c]pyridin-7-one] were 384 nM, 15 nM and 120 nM.
For `Cc1nn(-c2ccccc2)c(Cl)c1CNc1ccc(Oc2ccc(F)cc2F)c(-c2cn(C)c3c(=O)[nH]ccc23)c1` [Example 171, 3-[5-{[(5-chloro-3-methyl-1-phenyl-1H-pyrazol-4-yl)methyl]amino}-2-(2,4-difluorophenoxy)phenyl]-1-methyl-1,6-dihydro-7H-pyrrolo[2,3-c]pyridin-7-one] the same measures were 198 nM, 176 nM and 384 nM.
For `CCS(=O)(=O)Nc1ccc(Oc2ccc(F)cc2F)c(-c2cn(C)c3c(=O)[nH]c(C(=O)NC)cc23)c1` [Example 200, 3-{2-(2,4-difluorophenoxy)-5-[(ethylsulfonyl)amino]phenyl}-N,1-dimethyl-7-oxo-6,7-dihydro-1H-pyrrolo[2,3-c]pyridine-5-carboxamide] the same measures were 43.6 nM, 3.24 nM and 4.56 nM.
Regarding `Cn1cc(-c2cc(S(C)(=O)=O)ccc2OCC2(C)CC2)c2cc[nH]c(=O)c21` [Example 29, 1-methyl-3-{2-[(1-methylcyclopropyl)methoxy]-5-(methylsulfonyl)phenyl}-1,6-dihydro-7H-pyrrolo[2,3-c]pyridin-7-one], the EC50 in test [1] was found to be 191 nM. Also, the Ki at BRD4 (BDI_K57-E168) came out at 12 nM; at BRD4 (BDII_E352-M457), 89 nM.
For the molecule `Cn1cc(-c2cc(NCc3ccc(C#N)cc3)ccc2Oc2ccc(F)cc2F)c2cc[nH]c(=O)c21` [Example 167, 4-({[4-(2,4-difluorophenoxy)-3-(1-methyl-7-oxo-6,7-dihydro-1H-pyrrolo[2,3-c]pyridin-3-yl)phenyl]amino}methyl)benzonitrile], the EC50 in test [1] is 338 nM. The Ki came to 32.8 nM at BRD4 (BDI_K57-E168) and 156 nM at BRD4 (BDII_E352-M457).
Taken in the same sequence, the figures for `Cn1cc(-c2cc(CS(=O)(=O)N3CCCCC3)ccc2Oc2ccc(F)cc2F)c2cc[nH]c(=O)c21` [Example 103, 3-{2-(2,4-difluorophenoxy)-5-[(piperidin-1-ylsulfonyl)methyl]phenyl}-1-methyl-1,6-dihydro-7H-pyrrolo[2,3-c]pyridin-7-one] were 89 nM, 8.4 nM and 4.9 nM.
For the molecule `Cn1cc(-c2cc(NCc3ccccc3C#N)ccc2Oc2ccc(F)cc2F)c2cc[nH]c(=O)c21` [Example 178, 2-({[4-(2,4-difluorophenoxy)-3-(1-methyl-7-oxo-6,7-dihydro-1H-pyrrolo[2,3-c]pyridin-3-yl)phenyl]amino}methyl)benzonitrile], in test [1], the EC50 was found to be 233 nM. The Ki on BRD4 (BDI_K57-E168) came to 30.8 nM; at BRD4 (BDII_E352-M457), 239 nM.
As for `CNS(=O)(=O)Cc1ccc(Oc2ccc(F)cc2F)c(-c2cn(C)c3c(=O)[nH]ccc23)c1` [Example 100, 1-[4-(2,4-difluorophenoxy)-3-(1-methyl-7-oxo-6,7-dihydro-1H-pyrrolo[2,3-c]pyridin-3-yl)phenyl]-N-methylmethanesulfonamide], in test [1], the EC50 worked out at 9 nM. Besides, the values for the Ki on BRD4 (BDI_K57-E168) and on BRD4 (BDII_E352-M457) were 4.1 nM and 4.8 nM, respectively.
For `Cn1cc(-c2cc(CNCc3c[nH]cn3)ccc2Oc2ccc(F)cc2F)c2cc[nH]c(=O)c21` [Example 119, 3-[2-(2,4-difluorophenoxy)-5-{[(1H-imidazol-4-ylmethyl)amino]methyl}phenyl]-1-methyl-1,6-dihydro-7H-pyrrolo[2,3-c]pyridin-7-one] the same measures were greater than 3000 nM, 599 nM and 478 nM.
`Cn1cc(-c2cc(S(C)(=O)=O)ccc2O[C@H]2CC[C@H](O)CC2)c2cc[nH]c(=O)c21` [Example 34, 3-{2-[(trans-4-hydroxycyclohexyl)oxy]-5-(methylsulfonyl)phenyl}-1-methyl-1,6-dihydro-7H-pyrrolo[2,3-c]pyridin-7-one]: the EC50 in test [1] is 95 nM. Moreover, the figures for the Ki at BRD4 (BDI_K57-E168) and on BRD4 (BDII_E352-M457) were 1.6 nM and 29 nM, respectively.
For `CCS(=O)(=O)Nc1ccc(Oc2ccc(F)cc2F)c(-c2cn(C)c3c(=O)[nH]c(C(=O)NCC#N)cc23)c1` [Example 189, N-(cyanomethyl)-3-{2-(2,4-difluorophenoxy)-5-[(ethylsulfonyl)amino]phenyl}-1-methyl-7-oxo-6,7-dihydro-1H-pyrrolo[2,3-c]pyridine-5-carboxamide] the same measures were 77.9 nM, 1.95 nM and 8.82 nM.
